# In patent US10570121B2, “Substituted dihydroisoquinolinone compounds” (priority 2014, dated 2020):
# Like-named read-outs stand apart in the source and are kept apart here.
# Assays:
# WT EZH2 = WT EZH2 (Homo sapiens (Human), UniProt Q15910); assay: WT EZH2 nucleosome assay (10X SAM, high SAM conditions); assay type: biochemical; settings: 15 uM SAM, Ki app from competitive inhibition fit
# EZH2 Mutant Y641N = EZH2 Mutant Y641N (Homo sapiens (Human), UniProt Q15910, Y641N); assay: EZH2 Mutant Y641N nucleosome assay; assay type: biochemical; settings: PRC2 4-protein complex 6 nM, 1.5 μM SAM, HeLa oligonucleosomes
# Chain of EZH2 Mutant Y641N (Q15910 whole entry Y641N, looked up): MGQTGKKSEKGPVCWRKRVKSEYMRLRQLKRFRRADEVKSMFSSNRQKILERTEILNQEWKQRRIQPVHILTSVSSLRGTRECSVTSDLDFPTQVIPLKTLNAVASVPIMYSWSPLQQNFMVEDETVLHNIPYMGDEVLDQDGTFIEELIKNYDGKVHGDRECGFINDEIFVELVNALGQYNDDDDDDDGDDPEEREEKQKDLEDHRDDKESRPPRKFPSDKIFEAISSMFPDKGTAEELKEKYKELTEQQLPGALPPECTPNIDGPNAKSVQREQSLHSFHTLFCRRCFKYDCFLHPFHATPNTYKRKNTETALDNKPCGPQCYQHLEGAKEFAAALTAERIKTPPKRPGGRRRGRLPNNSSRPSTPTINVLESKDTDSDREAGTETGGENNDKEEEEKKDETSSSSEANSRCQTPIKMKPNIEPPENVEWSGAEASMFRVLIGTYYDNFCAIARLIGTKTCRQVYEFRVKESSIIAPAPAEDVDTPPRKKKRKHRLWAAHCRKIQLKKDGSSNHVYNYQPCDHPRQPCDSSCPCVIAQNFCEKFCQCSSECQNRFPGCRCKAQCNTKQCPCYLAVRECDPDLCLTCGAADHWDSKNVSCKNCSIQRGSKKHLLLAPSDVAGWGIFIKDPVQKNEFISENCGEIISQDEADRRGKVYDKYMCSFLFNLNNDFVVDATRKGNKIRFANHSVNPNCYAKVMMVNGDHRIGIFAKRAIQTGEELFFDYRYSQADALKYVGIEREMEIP
# Chain of EZH2 Mutant Y641N (O75530 whole entry partner, looked up): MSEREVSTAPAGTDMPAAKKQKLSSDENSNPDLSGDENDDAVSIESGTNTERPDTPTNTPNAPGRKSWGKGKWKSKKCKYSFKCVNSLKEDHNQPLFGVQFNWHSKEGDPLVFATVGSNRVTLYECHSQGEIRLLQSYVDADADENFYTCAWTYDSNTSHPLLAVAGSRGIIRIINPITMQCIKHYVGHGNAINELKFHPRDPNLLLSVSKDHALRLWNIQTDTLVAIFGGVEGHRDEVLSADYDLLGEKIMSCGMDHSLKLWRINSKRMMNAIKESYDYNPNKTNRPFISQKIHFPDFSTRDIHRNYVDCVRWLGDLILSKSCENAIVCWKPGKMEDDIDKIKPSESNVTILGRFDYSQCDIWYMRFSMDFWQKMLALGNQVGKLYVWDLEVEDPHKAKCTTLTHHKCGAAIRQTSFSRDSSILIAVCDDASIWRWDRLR
# Chain of EZH2 Mutant Y641N (Q15022 whole entry partner, looked up): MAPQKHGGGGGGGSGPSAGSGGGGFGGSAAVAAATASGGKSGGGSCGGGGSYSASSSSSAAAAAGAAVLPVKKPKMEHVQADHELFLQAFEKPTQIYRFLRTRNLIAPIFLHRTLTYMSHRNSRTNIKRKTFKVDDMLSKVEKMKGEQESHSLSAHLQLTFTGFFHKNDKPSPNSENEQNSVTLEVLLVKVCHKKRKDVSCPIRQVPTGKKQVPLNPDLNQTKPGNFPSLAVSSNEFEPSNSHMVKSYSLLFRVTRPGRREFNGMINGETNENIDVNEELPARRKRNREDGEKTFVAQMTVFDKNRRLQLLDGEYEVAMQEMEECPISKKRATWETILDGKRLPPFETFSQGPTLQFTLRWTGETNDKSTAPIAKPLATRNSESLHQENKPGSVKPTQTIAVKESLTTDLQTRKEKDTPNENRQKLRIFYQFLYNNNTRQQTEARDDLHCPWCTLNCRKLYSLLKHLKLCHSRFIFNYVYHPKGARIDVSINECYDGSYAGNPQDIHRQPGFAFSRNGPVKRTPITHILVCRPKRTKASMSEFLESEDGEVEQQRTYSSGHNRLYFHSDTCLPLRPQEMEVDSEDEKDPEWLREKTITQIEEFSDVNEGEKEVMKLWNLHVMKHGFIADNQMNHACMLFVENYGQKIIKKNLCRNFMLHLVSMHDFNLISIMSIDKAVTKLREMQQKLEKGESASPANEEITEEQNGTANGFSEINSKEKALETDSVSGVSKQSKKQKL
# Chain of EZH2 Mutant Y641N (Q09028 whole entry partner, looked up): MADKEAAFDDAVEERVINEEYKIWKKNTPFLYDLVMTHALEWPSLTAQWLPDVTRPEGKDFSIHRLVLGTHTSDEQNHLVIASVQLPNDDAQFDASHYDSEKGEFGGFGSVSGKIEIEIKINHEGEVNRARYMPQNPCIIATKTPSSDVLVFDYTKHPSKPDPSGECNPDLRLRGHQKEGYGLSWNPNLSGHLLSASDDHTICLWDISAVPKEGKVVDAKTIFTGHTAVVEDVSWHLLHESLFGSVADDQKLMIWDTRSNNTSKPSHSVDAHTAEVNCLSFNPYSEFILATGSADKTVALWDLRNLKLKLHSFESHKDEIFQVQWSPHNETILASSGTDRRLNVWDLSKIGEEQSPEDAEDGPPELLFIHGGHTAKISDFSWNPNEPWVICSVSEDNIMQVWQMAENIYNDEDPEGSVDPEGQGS
# [1] = WT EZH2 Nucleosome assay (10X SAM) Ki (μM)
# [2] = EZH2 Mutant Y641N Nucleosome assay IC50 (μM)
# [3] = read-out: WT EZH2 Nucleosome assay (10X SAM) Ki
# [4] = read-out: EZH2 Mutant Y641N Nucleosome assay IC50
# Chain of WT EZH2 (Q15910 whole entry, looked up): as the sequence (Q15910 whole entry Y641N, looked up) above, with N641Y counted along it
# Chain of WT EZH2 (O75530 whole entry partner, looked up): as the sequence (O75530 whole entry partner, looked up) above
# Chain of WT EZH2 (Q15022 whole entry partner, looked up): as the sequence (Q15022 whole entry partner, looked up) above
# Chain of WT EZH2 (Q09028 whole entry partner, looked up): as the sequence (Q09028 whole entry partner, looked up) above
Ki (WT EZH2; [1]),IC50 (EZH2 Mutant Y641N; [2]),Ki (WT EZH2; [3]),IC50 (EZH2 Mutant Y641N; [4]),Compound
375 nM,1.71 µM,–,–,"COC(c1cc(Cl)c2c(c1Cl)C(=O)N(Cc1c(C)cc(C)[nH]c1=O)CC2)C1CCN(C2COC2)CC1 (single isomer, unassigned) [Example 156]"
578 nM,5.13 µM,–,–,"CCOC(c1cc(Cl)c2c(c1Cl)C(=O)N(Cc1c(C)cc(C)[nH]c1=O)CC2)C1CS(=O)(=O)C1 (single isomer, unassigned) [Example 158]"
21 nM,0.086 µM,–,–,"COC(c1cc(Cl)c2c(c1Cl)C(=O)N(Cc1c(C)cc(C)[nH]c1=O)CC2)C1CCOC1 (single isomer, unassigned) [Example 160]"
–,–,62 nM,0.85 µM,"COC(c1cc(Cl)c2c(c1Cl)C(=O)N(Cc1c(C)cc(C)[nH]c1=O)CC2)C1CCNCC1 (single isomer, unassigned) [Example 167]"
–,–,328 nM,2.63 µM,"COC(c1cc(Cl)c2c(c1Cl)C(=O)N(Cc1c(C)cc(C)[nH]c1=O)CC2)C1CN(C(=O)[C@@H](C)O)C1 (single isomer, unassigned) [Example 171]"
–,–,0.6 nM,0.013 µM,"COC(c1cc(Cl)c2c(c1Cl)C(=O)N(Cc1c(C)cc(C)[nH]c1=O)CC2)C1CN(C)C1 (single isomer, unassigned) [Example 174]"
–,–,85 nM,1 µM,"COC(c1cc(Cl)c2c(c1Cl)C(=O)N(Cc1c(C)cc(C)[nH]c1=O)CC2)C1CN(C)C1 (single isomer, unassigned) [Example 175]"
–,–,49 nM,0.282 µM,"COC(c1cc(Cl)c2c(c1Cl)C(=O)N(Cc1c(C)cc(C)[nH]c1=O)CC2)C1CN(S(C)(=O)=O)C1 (single isomer, unassigned) [Example 177]"
–,–,1 nM,0.009 µM,"COC(c1cc(Cl)c2c(c1Cl)C(=O)N(Cc1c(C)cc(C)[nH]c1=O)CC2)C1CC(=O)N(C)C1 (single isomer, unassigned) [Example 179]"
–,–,1 nM,0.041 µM,"COC(c1cc(C)c2c(c1Cl)C(=O)N(Cc1c(C)cc(C)[nH]c1=O)CC2)C1CN(C2COC2)C1 (single isomer, unassigned) [Example 181]"
–,–,2230 nM,9.15 µM,"COC(c1cc(C)c2c(c1Cl)C(=O)N(Cc1c(C)cc(C)[nH]c1=O)CC2)C1CN(C2COC2)C1 (single isomer, unassigned) [Example 182]"
–,–,14 nM,0.24 µM,"Cc1cc(C)c(CN2CCc3c(Cl)cc(C(C)C4CN(S(C)(=O)=O)C4)c(Cl)c3C2=O)c(=O)[nH]1 (single isomer, unassigned) [Example 186]"
–,–,1 nM,0.01 µM,"Cc1cc(C)c(CN2CCc3c(Cl)cc(C(C)C4CN(C)C4)c(Cl)c3C2=O)c(=O)[nH]1 (single isomer, unassigned) [Example 187]"
–,–,14 nM,0.151 µM,"Cc1cc(C)c(CN2CCc3c(Cl)cc(C(C)C4CN(C)C4)c(Cl)c3C2=O)c(=O)[nH]1 (single isomer, unassigned) [Example 188]"
–,–,16 nM,0.1 µM,"Cc1cc(C)c(CN2CCc3c(Cl)cc(C(C)C4CNC4)c(Cl)c3C2=O)c(=O)[nH]1 (single isomer, unassigned) [Example 190]"
–,–,0.3 nM,0.005 µM,"COc1cc(C)[nH]c(=O)c1CN1CCc2c(C)cc(C(C)C3CN(S(C)(=O)=O)C3)c(Cl)c2C1=O (single isomer, unassigned) [Example 191]"
–,–,117 nM,0.605 µM,"COc1cc(C)[nH]c(=O)c1CN1CCc2c(C)cc(C(C)C3CN(S(C)(=O)=O)C3)c(Cl)c2C1=O (single isomer, unassigned) [Example 192]"
–,–,1 nM,0.01 µM,"Cc1cc(C)c(CN2CCc3c(C)cc(C(C)C4CN(S(C)(=O)=O)C4)c(Cl)c3C2=O)c(=O)[nH]1 (single isomer, unassigned) [Example 193]"
–,–,46 nM,0.216 µM,"Cc1cc(C)c(CN2CCc3c(C)cc(C(C)C4COC4)c(Cl)c3C2=O)c(=O)[nH]1 (single isomer, unassigned) [Example 195]"
–,–,0.2 nM,0.003 µM,"Cc1cc(C)c(CN2CCc3c(C)cc(C(C)C4COC4)c(Cl)c3C2=O)c(=O)[nH]1 (single isomer, unassigned) [Example 196]"
–,–,0.1 nM,0.002 µM,"COc1cc(C)[nH]c(=O)c1CN1CCc2c(Cl)cc(C(C)C3CCN(C(=O)CO)CC3)c(Cl)c2C1=O (single isomer, unassigned) [Example 200]"
–,–,7 nM,0.037 µM,"COc1cc(C)[nH]c(=O)c1CN1CCc2c(Cl)cc(C(C)C3CCN(C(=O)CO)CC3)c(Cl)c2C1=O (single isomer, unassigned) [Example 201]"

# Continued, compound first:
Compound,Ki (WT EZH2; [1]),IC50 (EZH2 Mutant Y641N; [2]),Ki (WT EZH2; [3]),IC50 (EZH2 Mutant Y641N; [4])
"COC(c1cc(Cl)c2c(c1Cl)C(=O)N(Cc1c(C)cc(C)[nH]c1=O)CC2)C1CCOC1 (single isomer, unassigned) [Example 162]",148 nM,2.97 µM,–,–
"[2H]C([2H])([2H])OC(c1cc(Cl)c2c(c1Cl)C(=O)N(Cc1c(C)cc(C)[nH]c1=O)CC2)C1CCN(C(=O)CO)CC1 (single isomer, unassigned) [Example 164]",200 nM,1.97 µM,–,–
"COC(c1cc(Cl)c2c(c1Cl)C(=O)N(Cc1c(C)cc(C)[nH]c1=O)CC2)C1CCNCC1 (single isomer, unassigned) [Example 166]",–,–,0.2 nM,0.002 µM
"COC(c1cc(C)c2c(c1Cl)C(=O)N(Cc1c(C)cc(C)[nH]c1=O)CC2)C1CCN(C(=O)CO)CC1 (single isomer, unassigned) [Example 168]",–,–,0.7 nM,0.008 µM
"COC(c1cc(C)c2c(c1Cl)C(=O)N(Cc1c(C)cc(C)[nH]c1=O)CC2)C1CCN(C(=O)CO)CC1 (single isomer, unassigned) [Example 169]",–,–,15.1 nM,0.07 µM
"COC(c1cc(Cl)c2c(c1Cl)C(=O)N(Cc1c(C)cc(C)[nH]c1=O)CC2)C1CN(C(=O)[C@@H](C)O)C1 (single isomer, unassigned) [Example 170]",–,–,0.8 nM,0.014 µM
"COC(c1cc(Cl)c2c(c1Cl)C(=O)N(Cc1c(C)cc(C)[nH]c1=O)CC2)C1CN(C(=O)[C@H](C)O)C1 (single isomer, unassigned) [Example 172]",–,–,0.8 nM,0.012 µM
"COC(c1cc(Cl)c2c(c1Cl)C(=O)N(Cc1c(C)cc(C)[nH]c1=O)CC2)C1CN(C(=O)[C@H](C)O)C1 (single isomer, unassigned) [Example 173]",–,–,16 nM,0.206 µM
"COC(c1cc(Cl)c2c(c1Cl)C(=O)N(Cc1c(C)cc(C)[nH]c1=O)CC2)C1CN(S(C)(=O)=O)C1 (single isomer, unassigned) [Example 176]",–,–,0.3 nM,0.005 µM
"COC(c1cc(Cl)c2c(c1Cl)C(=O)N(Cc1c(C)cc(C)[nH]c1=O)CC2)C1CC(=O)N(C)C1 (single isomer, unassigned) [Example 180]",–,–,390 nM,2.16 µM
"Cc1cc(C)c(CN2CCc3c(Cl)cc(C(C)C4CN(C(=O)CO)C4)c(Cl)c3C2=O)c(=O)[nH]1 (single isomer, unassigned) [Example 183]",–,–,56 nM,0.517 µM
"Cc1cc(C)c(CN2CCc3c(Cl)cc(C(C)C4CN(C(=O)CO)C4)c(Cl)c3C2=O)c(=O)[nH]1 (single isomer, unassigned) [Example 184]",–,–,0.6 nM,0.005 µM
"Cc1cc(C)c(CN2CCc3c(Cl)cc(C(C)C4CN(S(C)(=O)=O)C4)c(Cl)c3C2=O)c(=O)[nH]1 (single isomer, unassigned) [Example 185]",–,–,1 nM,0.012 µM
"Cc1cc(C)c(CN2CCc3c(Cl)cc(C(C)C4CNC4)c(Cl)c3C2=O)c(=O)[nH]1 (single isomer, unassigned) [Example 189]",–,–,0.7 nM,0.006 µM
"Cc1cc(C)c(CN2CCc3c(C)cc(C(C)C4CN(S(C)(=O)=O)C4)c(Cl)c3C2=O)c(=O)[nH]1 (single isomer, unassigned) [Example 194]",–,–,44 nM,0.309 µM
"COc1cc(C)[nH]c(=O)c1CN1CCc2c(C)cc(C(C)C3COC3)c(Cl)c2C1=O (single isomer, unassigned) [Example 197]",–,–,33 nM,0.062 µM
"COc1cc(C)[nH]c(=O)c1CN1CCc2c(C)cc(C(C)C3COC3)c(Cl)c2C1=O (single isomer, unassigned) [Example 198]",–,–,0.01 nM,0.001 µM
"COc1cc(C)[nH]c(=O)c1CN1CCc2c(Cl)cc(C(C3COC3)N(C)C)c(Cl)c2C1=O (single isomer, unassigned) [Example 203]",–,–,55 nM,0.204 µM
"COc1cc(C)[nH]c(=O)c1CN1CCc2c(Cl)cc(C(C3COC3)N(C)C)c(Cl)c2C1=O (single isomer, unassigned) [Example 204]",–,–,2 nM,0.062 µM
"Cc1cc(C)c(CN2CCc3c(Cl)cc(C(F)C4CCN(C(=O)CO)CC4)c(Cl)c3C2=O)c(=O)[nH]1 (single isomer, unassigned; (+)) [Example 8, (+)-5,8-dichloro-2-[(4,6-dimethyl-2-oxo-1,2-dihydropyridin-3-yl)methyl]-7-{fluoro[1-(hydroxyacetyl)piperidin-4-yl]methyl}-3,4-dihydroisoquinolin-1(2H)-one]",–,–,652 nM,5.02 µM
"Cc1cc(C)c(CN2CCc3c(Cl)cc(C(C)N4CCOCC4)c(Cl)c3C2=O)c(=O)[nH]1 (single isomer, unassigned; (+)) [Example 90, (+)-5,8-dichloro-2-[(4,6-dimethyl-2-oxo-1,2-dihydropyridin-3-yl)methyl]-7-[1-(morpholin-4-yl)ethyl]-3,4-dihydroisoquinolin-1(2H)-one]",–,–,459 nM,5.63 µM
